“And” between values parts separate entries of the source, which are not always exact repeats. Equal entries are not always repeated. Where two headings read alike, the source gives them in different places.
Experiments:
hCD1d = hCD1d (Homo sapiens, UniProt P15813+P61769); experiment: Detergent competition with 18:1 LPC binding to hCD1d (ITF, MST, nanoDSF); set-up: TEV protease cleavage site ENLYFQS (C); BirA biotinylation site (C); His7 (C); made in house; host or cells: TurboCHO cells (GenScript); details: 0.05% detergent
Sequence of hCD1d (P61769+P15813 fused): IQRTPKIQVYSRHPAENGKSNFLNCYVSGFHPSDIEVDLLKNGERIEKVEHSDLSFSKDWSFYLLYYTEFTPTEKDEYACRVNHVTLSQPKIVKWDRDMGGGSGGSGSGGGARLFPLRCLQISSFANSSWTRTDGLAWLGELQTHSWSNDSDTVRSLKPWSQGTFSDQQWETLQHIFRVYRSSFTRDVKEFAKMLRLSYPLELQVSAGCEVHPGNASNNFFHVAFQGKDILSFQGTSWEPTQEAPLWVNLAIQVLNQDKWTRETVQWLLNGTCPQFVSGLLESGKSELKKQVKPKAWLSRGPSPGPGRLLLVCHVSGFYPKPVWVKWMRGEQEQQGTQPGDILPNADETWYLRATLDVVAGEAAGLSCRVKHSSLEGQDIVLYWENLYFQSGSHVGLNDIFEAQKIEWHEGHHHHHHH
Experimental: We selected 18:1 LPC for the competition experiments since, first, a structure with hCD1d has been well characterized, and second, it binds hCD1d with moderate micromolar affinity, which is representative of many endogenous lipid antigens (Cantu et al., [2003]; López‐Sagaseta et al., [2012]). In the absence of detergent, 18:1 LPC produced concentration‐dependent changes in ITF and MST signal and decreased the melting temperature of hCD1d (ΔT m = −8.1 ± 1.7°C), indicative of specific binding and hCD1d destabilization (Figure 7c–e).
ITF spectra were recorded from 300 to 500 nm using a Horiba FL3‐21 Fluorometer with the excitation wavelength of 285 nm and excitation/emission slits of 6.2 nm. Fluorescence spectra of 50 to 100 nM hCD1d were acquired in the absence and presence of detergents in 1X PBS pH 7.4 at 25°C. Prior to data acquisition, hCD1d and detergent or lipid samples were incubated at 37°C overnight (~12 h) to simulate in vitro and in vivo loading conditions. […] For 18:1 LPC experiments, fluorescence spectra of 100 nM hCD1d were acquired in the absence and presence of 18:1 LPC in 1X PBS pH 7.4 at 25°C. […] For all ITF experiments, the change in fluorescence signal (F − F 0/F 0) was determined at 335 nm. Three replicates were performed, and data are presented as the mean ± standard deviation (n = 3). K D values were fitted with non‐linear regression in GraphPad Prism v10.1. […]

AF647‐labeled hCD1d [1] = target: T1, AF647‐labeled hCD1d (Homo sapiens, UniProt P15813+P61769); experiment: Microscale thermophoresis (MST) binding assay
T1 construct: TEV protease cleavage site ENLYFQS (C); BirA biotinylation site (C); His7 (C); made in house; host or cells: TurboCHO cells (GenScript)
T1 sequence (P61769+P15813 fused): as above
Method in brief: (§1)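 hCD1d was NHS-labeled with AF647 (~75% labeling) and held at 100 nM against rising detergent or 18:1 LPC in PBS pH 7.4. Samples were preincubated at 37°C overnight (~12 h) and read at 25°C with 20 s IR-on time. Data are mean ± SD, n = 3.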

AF647‐labeled hCD1d [2] = target: T2, AF647‐labeled hCD1d (Homo sapiens, UniProt P15813); experiment: Microscale thermophoresis (MST) binding assay
T2 construct: TEV protease cleavage site ENLYFQS (C); BirA biotinylation site (C); His7 (C); made in house; host or cells: TurboCHO cells (GenScript)
T2 sequence (P15813 whole entry, looked up): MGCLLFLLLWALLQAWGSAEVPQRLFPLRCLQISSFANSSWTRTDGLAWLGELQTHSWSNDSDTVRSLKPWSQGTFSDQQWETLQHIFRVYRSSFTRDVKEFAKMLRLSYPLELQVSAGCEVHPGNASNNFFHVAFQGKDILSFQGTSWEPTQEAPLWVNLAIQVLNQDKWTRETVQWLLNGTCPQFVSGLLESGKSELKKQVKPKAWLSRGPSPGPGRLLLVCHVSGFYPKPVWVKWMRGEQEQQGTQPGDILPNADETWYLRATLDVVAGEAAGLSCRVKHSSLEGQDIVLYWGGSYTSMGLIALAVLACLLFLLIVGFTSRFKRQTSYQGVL
Method in brief: as §1

[3] = 0.001 M detergent, 100 nM AF647‐hCD1d

Tween 20
effect of detergent on 18:1 LPC binding to hCD1d (in words) (hCD1d): abolished nearly all detectable binding signals
Fnorm (rep 1-3) (AF647‐labeled hCD1d [1]; 3.05176e-8 M detergent): 810.612 ‰ and 815.192 ‰ and 809.256 ‰
Fnorm (rep 1-3) (AF647‐labeled hCD1d [1]; 6.10352e-8 M detergent): 813.29 ‰ and 812.34 ‰ and 811.415 ‰
Fnorm (rep 1-3) (AF647‐labeled hCD1d [1]; 1.2207e-7 M detergent): 817.136 ‰ and 816.199 ‰ and 816.479 ‰
Fnorm (rep 1-3) (AF647‐labeled hCD1d [1]; 2.44141e-7 M detergent): 815.645 ‰ and 816.365 ‰ and 812.483 ‰
Fnorm (rep 1-3) (AF647‐labeled hCD1d [1]; 4.88281e-7 M detergent): 818.589 ‰ and 818.547 ‰ and 817.485 ‰
Fnorm (rep 1-3) (AF647‐labeled hCD1d [1]; 9.76563e-7 M detergent): 822.035 ‰ and 829.676 ‰ and 823.26 ‰
Fnorm (rep 1-3) (AF647‐labeled hCD1d [1]; 1.95313e-6 M detergent): 824.959 ‰ and 826.615 ‰ and 828.828 ‰
Fnorm (rep 1-3) (AF647‐labeled hCD1d [1]; 3.90625e-6 M detergent): 831.241 ‰ and 838.502 ‰ and 830.859 ‰
Fnorm (rep 1-3) (AF647‐labeled hCD1d [1]; 7.8125e-6 M detergent): 839.917 ‰ and 838.414 ‰ and 840.568 ‰
Fnorm (rep 1-3) (AF647‐labeled hCD1d [1]; 1.5625e-5 M detergent): 845.364 ‰ and 842.629 ‰ and 839.392 ‰
Fnorm (rep 1-3) (AF647‐labeled hCD1d [1]; 3.125e-5 M detergent): 839.617 ‰ and 847.737 ‰ and 840.958 ‰
Fnorm (rep 1-3) (AF647‐labeled hCD1d [1]; 6.25e-5 M detergent): 842.166 ‰ and 843.948 ‰ and 838.707 ‰
Fnorm (rep 1-3) (AF647‐labeled hCD1d [1]; 0.000125 M detergent): 841.26 ‰ and 840.691 ‰ and 839.447 ‰
Fnorm (rep 1-3) (AF647‐labeled hCD1d [1]; 0.00025 M detergent): 843.661 ‰ and 845.01 ‰ and 840.579 ‰
Fnorm (rep 1-3) (AF647‐labeled hCD1d [1]; 0.0005 M detergent): 843.68 ‰ and 846.334 ‰ and 839.195 ‰
Fnorm (rep 1-3) (AF647‐labeled hCD1d [1]; [3]): 842.084 ‰ and 846.496 ‰ and 844.53 ‰
Kd (AF647‐labeled hCD1d [1]; Figure 5B, detergent binding to hCD1d, read-out: MST - Kd (uM) average): 1.79 µM
Kd (AF647‐labeled hCD1d [1]; detergent with 100 nM AF647‐labeled hCD1d, 25°C, apparent, read-out: K D (MST)): 1.8 ± 0.5 µM

C[C@H](CCC(=O)NCCC[N+](C)(C)CCCS(=O)(=O)[O-])[C@H]1CC[C@H]2[C@@H]3[C@H](O)C[C@@H]4C[C@H](O)CC[C@]4(C)[C@H]3C[C@H](O)[C@]12C [CHAPS, 3‐((3‐cholamidopropyl) dimethylammonio)‐1‐propanesulfonate]
effect of detergent on 18:1 LPC binding to hCD1d (in words) (hCD1d): did not robustly outcompete binding
Fnorm (rep 1-3) (AF647‐labeled hCD1d [1]; 3.05176e-8 M detergent): 790.173 ‰ and 791.465 ‰ and 791.791 ‰
Fnorm (rep 1-3) (AF647‐labeled hCD1d [1]; 6.10352e-8 M detergent): 791.241 ‰ and 791.286 ‰ and 792.264 ‰
Fnorm (rep 1-3) (AF647‐labeled hCD1d [1]; 1.2207e-7 M detergent): 790.851 ‰ and 791.968 ‰ and 791.334 ‰
Fnorm (rep 1-3) (AF647‐labeled hCD1d [1]; 2.44141e-7 M detergent): 791.909 ‰ and 789.682 ‰ and 791.374 ‰
Fnorm (rep 1-3) (AF647‐labeled hCD1d [1]; 4.88281e-7 M detergent): 790.852 ‰ and 792.443 ‰ and 789.72 ‰
Fnorm (rep 1-3) (AF647‐labeled hCD1d [1]; 9.76563e-7 M detergent): 790.963 ‰ and 791.166 ‰ and 789.816 ‰
Fnorm (rep 1-3) (AF647‐labeled hCD1d [1]; 1.95313e-6 M detergent): 790.601 ‰ and 790.682 ‰ and 790.374 ‰
Fnorm (rep 1-3) (AF647‐labeled hCD1d [1]; 3.90625e-6 M detergent): 791.182 ‰ and 790.338 ‰ and 790.7 ‰
Fnorm (rep 1-3) (AF647‐labeled hCD1d [1]; 7.8125e-6 M detergent): 792.893 ‰ and 791.581 ‰ and 790.149 ‰
Fnorm (rep 1-3) (AF647‐labeled hCD1d [1]; 1.5625e-5 M detergent): 792.783 ‰ and 794.481 ‰ and 793.14 ‰
Fnorm (rep 1-3) (AF647‐labeled hCD1d [1]; 3.125e-5 M detergent): 797.777 ‰ and 796.648 ‰ and 796.885 ‰
Fnorm (rep 1-3) (AF647‐labeled hCD1d [1]; 6.25e-5 M detergent): 802.833 ‰ and 802.212 ‰ and 800.436 ‰
Fnorm (rep 1-3) (AF647‐labeled hCD1d [1]; 0.000125 M detergent): 807.041 ‰ and 807.203 ‰ and 808.474 ‰
Fnorm (rep 1-3) (AF647‐labeled hCD1d [1]; 0.00025 M detergent): 810.973 ‰ and 810.93 ‰ and 810.716 ‰
Fnorm (rep 1-3) (AF647‐labeled hCD1d [1]; 0.0005 M detergent): 814.652 ‰ and 812.289 ‰ and 815.372 ‰
Fnorm (rep 1-3) (AF647‐labeled hCD1d [1]; [3]): 815.189 ‰ and 817.537 ‰ and 819.368 ‰
Kd (AF647‐labeled hCD1d [2]; K D (MST), detergent with 100 nM AF647‐labeled hCD1d, 25°C, apparent): < 200 µM
Kd (AF647‐labeled hCD1d [2]; MST - Kd (uM) average, Figure 5B, detergent binding to hCD1d): 90.4 µM

— publication PMC12720774, “Detergents alter the stability and lipid binding properties of the CD1d immunoreceptor” (Protein Science : A Publication of the Protein Society, 2025)
